In brackets after ≈: the same amount, converted by molar mass.
Legend:
Type in all cases: functional, cell-based
B16-F10 = experiment: Cytotoxic activity against B16F10 mouse melanoma cells
DA-3 cell line = experiment: Cytotoxic activity against DA-3 mouse mammary adenocarcinoma cells
HT-29 = experiment: Cytotoxic activity against HT-29 human colon adenocarcinoma cells
KB [1] = experiment: Cytotoxic activity against KBV vinblastine resistant KB cells; conditions: Homo sapiens
KB [2] = experiment: Cytotoxic activity against Human nasopharyngeal KB cell line
KB [3] = experiment: Cytotoxic activity against KB human nasopharyngeal carcinoma cells

## COc1ccc(C[C@H]2NC(=O)/C=C/C[C@@H]([C@H](C)[C@H]3O[C@@H]3c3ccccc3)OC(=O)[C@H](CC(C)C)OC(=O)[C@H](C)CNC2=O)cc1Cl [CRYPTOPHYCIN A]
B16-F10
  IC50: 30 pM
DA-3 cell line
  IC50: 2 pM
HT-29
  IC50: 2 pM
KB [1]
  IC50: 35 pM
KB [2]
  IC50: 0.005 ng/mL (≈ 0.00763 nM)
KB [3]
  IC50: 4 pM

Reference: ChEMBL document CHEMBL1128913, “Synthesis and in vitro cytotoxicity of cryptophycins and related analogs” (Bioorg Med Chem Lett, 1996)
